Experimental data from US20090105292A9, “Glucocorticoid Receptor Modulator Compounds and Methods” (LIGAND PHARMACEUTICALS INCORPORATED, priority 2004, published 2009).
Read-outs that look alike come from different tables or passages of the source.

Molecular target: T1, human glucocorticoid receptor protein (GR) (Homo sapiens, UniProt P04150)
T1 construct: made in house; host or cells: Spodoptera frugiperda Sf21 insect cells (baculovirus)
T1 sequence (P04150 1-777): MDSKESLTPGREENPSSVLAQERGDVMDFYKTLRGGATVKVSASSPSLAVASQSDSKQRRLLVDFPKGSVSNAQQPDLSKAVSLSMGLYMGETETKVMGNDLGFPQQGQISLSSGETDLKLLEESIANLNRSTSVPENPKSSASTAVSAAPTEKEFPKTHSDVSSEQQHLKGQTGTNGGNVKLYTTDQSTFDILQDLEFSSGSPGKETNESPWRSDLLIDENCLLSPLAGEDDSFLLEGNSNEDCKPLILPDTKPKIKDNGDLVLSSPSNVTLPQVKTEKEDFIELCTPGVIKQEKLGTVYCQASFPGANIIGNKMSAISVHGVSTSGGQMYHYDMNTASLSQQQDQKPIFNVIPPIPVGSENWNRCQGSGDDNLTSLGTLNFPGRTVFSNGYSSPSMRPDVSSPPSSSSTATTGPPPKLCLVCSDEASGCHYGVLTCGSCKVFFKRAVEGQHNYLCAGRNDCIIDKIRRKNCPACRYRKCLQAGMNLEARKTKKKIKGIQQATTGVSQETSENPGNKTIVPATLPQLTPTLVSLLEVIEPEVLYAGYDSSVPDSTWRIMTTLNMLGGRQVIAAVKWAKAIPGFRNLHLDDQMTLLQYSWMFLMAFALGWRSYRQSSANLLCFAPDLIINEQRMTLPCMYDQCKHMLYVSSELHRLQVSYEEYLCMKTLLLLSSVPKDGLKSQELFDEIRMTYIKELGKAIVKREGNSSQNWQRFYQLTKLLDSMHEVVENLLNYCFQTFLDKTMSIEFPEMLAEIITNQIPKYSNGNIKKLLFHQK
Test: Glucocorticoid receptor binding assay ([3H]dexamethasone competition, GR lysate)
Procedure: A baculovirus expression plasmid containing cDNA encoding the human glucocorticoid receptor protein (GR) was prepared using standard techniques. […] That expression plasmid was co-transfected together with wild type Autographa californica multiple nuclear polyhedrosis virus DNA into Spodopter frugiperda-21 (Sf-21) cells to generate recombinant virus containing GR cDNA. See e.g., O'Reilly, D. R., Miller, L. K., Luckow, V. A., Regulation of expression of a baculovirus ecdysteroid UDP glucosyltransferase gene. […] That recombinant virus containing GR cDNA was collected.
A suspension culture of uninfected Sf21 cells was grown to a density of 1.2×10^6 cells/ml and then infected with the recombinant virus containing GR cDNA at a multiplicity of infection of 2. Those infected Sf21 cells were incubated for 48 hours and then collected by centrifugation at 1000×g for 10 minutes at 4° C. The resulting cell pellets were resuspended in lysis buffer (50 mM Potassium Phosphate buffer, pH 7.0, 10 mM Monothioglycerol, 5 mM DTT, 20 mM Sodium Molybdate, 1 mM PMSF, 1 μg/mL aprotinin, and 10 μg/mL leupeptin) and incubated for 15 minutes on ice. Those resuspended cell pellets were homogenized using a Dounce homogenizer and a B pestle. A volume of 2 M KCl was added to the homogenized cell pellets to a final concentration of 0.4 M. The resulting GR lysates were centrifuged at 100,000×g for 60 min at 4° C. and stored for use in binding assays.
Binding assay samples were prepared in separate mini-tubes in a 96-well format at 4° C. Each binding assay sample was prepared in a volume of 250 μL of Assay Buffer (10% glycerol, 25 mM sodium phosphate, 10 mM potassium fluoride, 10 mM sodium molybdate, 0.25 mM CHAPS, 2 mM DTT and 1 mM EDTA, (adjusted to pH 7.5)) containing 50 μg of GR lysate; 2-4 nM of [^3H]dexamethasone at 84 Ci/mmol; and either a reference compound or a test compound. […] Each reference compound and test compound was assayed at varying concentrations, ranging from 0 to 10^−5 M. Each concentration of each reference compound and each test compound was assayed in triplicate. The assay samples were incubated for 16 hours at 4° C.
The assay samples were then centrifuged and the supernatants were discarded. The resulting pellets were washed twice with assay buffer lacking DTT. Radioactivity in counts per minute (CPM) of each washed pellet was determined by liquid scintillation counter (MicroBeta™, Wallach).
Specific binding for a particular sample was calculated using the equation: (Sample CPM)−(Average Non-specific CPM)
Average Non-specific CPM was defined as the amount of radioactivity from samples containing an excess (i.e. 1000 nM) of unlabeled dexamethasone. […] Ki values were determined using the Cheng-Prusoff equation using a previously determined Kd value for dexamethasone: Ki=IC50/(1+[L]/Kd)
[L]=concentration of labeled dexamethasone
Kd=dissociation constant of labeled dexamethasone

[1] = competition with 2-4 nM [3H]dexamethasone, 16 hours at 4° C., Cheng-Prusoff, read-out: Ki

## CCN(C)C(=O)c1ccsc1/C=C1\Oc2ccc(O)c(OC)c2-c2ccc3c(c21)C(C)=CC(C)(C)N3 [Compound 134, (Z)-5-(2′-(3′-(ethylmethylaminocarbonyl)thienylmethylidene))-1,2-dihydro-9-hydroxy-10-methoxy-2,2,4-trimethyl-5H-chromeno[3,4-f]quinoline]
[1]
  Ki: < 1 nM

## COc1c(O)ccc2c1-c1ccc3c(c1/C(=C/c1cc(F)ccc1C)O2)C(C)=CC(C)(C)N3 [Compound 37, (Z)-5-(5′-fluoro-2′-methylbenzylidene)-1,2-dihydro-9-hydroxy-10-methoxy-2,2,4-trimethyl-5H-chromeno[3,4-f]quinoline]
[1]
  Ki: < 1 nM

## COc1c(O)ccc2c1-c1ccc3c(c1/C(=C/c1ccccc1C#N)O2)C(C)=CC(C)(C)N3 [Compound 107, (Z)-5-(2′-cyanobenzylidene)-1,2-dihydro-9-hydroxy-10-methoxy-2,2,4-trimethyl-5H-chromeno[3,4-f]quinoline]
[1]
  Ki: < 1 nM

## COc1c(O)ccc2c1-c1ccc3c(c1/C(=C/c1ccc4c(c1)OCO4)O2)C(C)=CC(C)(C)N3 [Compound 67, (Z)-5-(3′,4′-methylenedioxybenzylidene)-1,2-dihydro-9-hydroxy-10-methoxy-2,2,4-trimethyl-5H-chromeno[3,4-f]quinoline]
[1]
  Ki: < 1 nM

## COc1c(O)ccc2c1-c1ccc3c(c1/C(=C/c1sccc1C(C)O)O2)C(C)=CC(C)(C)N3 (racemic) [Compound 171, (±)-(Z)-5-(2′-(3′-(1″-Hydroxyethyl)thienylmethylidene))1,2-dihydro-9-hydroxy-10-methoxy-2,2,4-trimethyl-5H-chromeno[3,4-f]quinoline]
[1]
  Ki: 1 to 2 nM

## COc1c(O)ccc2c1-c1ccc3c(c1/C(=C/c1sccc1CN(C)C)O2)C(C)=CC(C)(C)N3 [Compound 166, (Z)-5-(2′-(3′-(Dimethylaminomethyl)thienylmethylidene))1,2-dihydro-9-hydroxy-10-methoxy-2,2,4-trimethyl-5H-chromeno[3,4-f]quinoline]
[1]
  Ki: 2 to 3 nM

## COc1c(O)ccc2c1-c1ccc3c(c1/C(=C/c1sccc1CO)O2)C(C)=CC(C)(C)N3 [Compound 157, (Z)-5-(2′-(3′-Hydroxymethylthienylmethylidene))1,2-dihydro-9-hydroxy-10-methoxy-2,2,4-trimethyl-5H-chromeno[3,4-f]quinoline]
[1]
  Ki: < 1 nM

## C=CCC(O)c1ccsc1C=C1Oc2ccc(O)c(OC)c2-c2ccc3c(c21)C(C)=CC(C)(C)N3 (single isomer, unassigned; (+)) [Compound 200, (+)-(Z)-5-(2′-(3′-(1″-Hydroxybut-3″-enyl)thienylmethylidene))1,2-dihydro-9-hydroxy-10-methoxy-2,2,4-trimethyl-5H-chromeno[3,4-f]quinoline]
[1]
  Ki: 1 to 2 nM

## COc1c(O)ccc2c1-c1ccc3c(c1/C(=C/c1ccc(F)cc1S(=O)(=O)N(C)C)O2)C(C)=CC(C)(C)N3 [Compound 103, (Z)-5-(2′-dimethylaminosulphonyl-4′-fluorobenzylidene)-1,2-dihydro-9-hydroxy-10-methoxy-2,2,4-trimethyl-5H-chromeno[3,4-f]quinoline]
[1]
  Ki: 1 to 2 nM

## COc1c(O)ccc2c1-c1ccc3c(c1/C(=C/c1ccccc1C(=O)N1CCCC1)O2)C(C)=CC(C)(C)N3 [Compound 90, (Z)-5-(2′-(pyrrolidinecarbonyl)benzylidene)-1,2-dihydro-9-hydroxy-10-methoxy-2,2,4-trimethyl-5H-chromeno[3,4-f]quinoline]
[1]
  Ki: < 1 nM

## COc1c(O)ccc2c1-c1ccc3c(c1/C(=C/c1cccc(C(F)(F)F)c1)O2)C(C)=CC(C)(C)N3 [Compound 11, (Z)-5-(3′-trifluoromethylbenzylidene)-1,2-dihydro-9-hydroxy-10-methoxy-2,2,4-trimethyl-5H-chromeno[3,4-f]quinoline]
  Ki: 1 to 2 nM

## CCNC(=O)c1ccsc1/C=C1\Oc2ccc(O)c(OC)c2-c2ccc3c(c21)C(C)=CC(C)(C)N3 [Compound 249, (Z)-5-(2′-(3′-Ethylcarbamoylthienylmethylidene))1,2-dihydro-9-hydroxy-10-methoxy-2,2,4-trimethyl-5H-chromeno[3,4-f]quinoline]
[1]
  Ki: 1 to 2 nM

## CC#CCOCc1ccsc1/C=C1\Oc2ccc(O)c(OC)c2-c2ccc3c(c21)C(C)=CC(C)(C)N3 [Compound 237, (Z)-5-(2′-(3′-(But-2″-ynloxymethyl)thienylmethylidene))1,2-dihydro-9-hydroxy-10-methoxy-2,2,4-trimethyl-5H-chromeno[3,4-f]quinoline]
[1]
  Ki: 1 to 2 nM

## COc1c(O)ccc2c1-c1ccc3c(c1/C(=C/c1oc(C)cc1C(=O)N(C)C)O2)C(C)=CC(C)(C)N3 [Compound 146, (Z)-5-(2′-(3′-dimethylaminocarbonyl-5H-methylfuranylmethylidene))-1,2-dihydro-9-hydroxy-10-methoxy-2,2,4-trimethyl-5H-chromeno[3,4-f]quinoline]
  Ki: > 3 nM

## COc1c(O)ccc2c1-c1ccc3c(c1/C(=C/c1cccc(OCCF)c1)O2)C(C)=CC(C)(C)N3 [Compound 86, (Z)-5-(3′-(2″-fluoroethoxy)benzylidene)-1,2-dihydro-9-hydroxy-10-methoxy-2,2,4-trimethyl-5H-chromeno[3,4-f]quinoline]
[1]
  Ki: 1 to 2 nM

## C=CCC(O)c1ccsc1C=C1Oc2ccc(O)c(OC)c2-c2ccc3c(c21)C(C)=CC(C)(C)N3 (single isomer, unassigned; (-)) [Compound 201, (−)-(Z)-5-(2′-(3′-(1″-Hydroxybut-3″-enyl)thienylmethylidene))1,2-dihydro-9-hydroxy-10-methoxy-2,2,4-trimethyl-5H-chromeno[3,4-f]quinoline]
[1]
  Ki: 1 to 2 nM

## COc1c(O)ccc2c1-c1ccc3c(c1/C(=C/c1ccc(C(=O)N4CCCC4)s1)O2)C(C)=CC(C)(C)N3 [Compound 143, (Z)-5-(2′-(5′-(pyrrolidinocarbonyl)thienylmethylidene))-1,2-dihydro-9-hydroxy-10-methoxy-2,2,4-trimethyl-5H-chromeno[3,4-f]quinoline]
[1]
  Ki: 1 to 2 nM

## C=CCO/N=C(\C)c1ccsc1/C=C1\Oc2ccc(O)c(OC)c2-c2ccc3c(c21)C(C)=CC(C)(C)N3 [Compound 178, (Z)-5-(2′-(3′-((E)-1″-Allyloxyiminoethyl)thienylmethylidene))1,2-dihydro-9-hydroxy-10-methoxy-2,2,4-trimethyl-5H-chromeno[3,4-f]quinoline]
[1]
  Ki: 1 to 2 nM

## COc1c(O)ccc2c1-c1ccc3c(c1/C(=C/c1sccc1C(=O)N1CCC(=O)CC1)O2)C(C)=CC(C)(C)N3 [Compound 252, (Z)-5-(2′-(3′-(4″-Oxo-piperidinecarbonyl)thienylmethylidene))1,2-dihydro-9-hydroxy-10-methoxy-2,2,4-trimethyl-5H-chromeno[3,4-f]quinoline]
  Ki: 1 to 2 nM

## C=CCO/N=C(/C)c1ccsc1/C=C1\Oc2ccc(O)c(OC)c2-c2ccc3c(c21)C(C)=CC(C)(C)N3 [Compound 179, (Z)-5-(2′-(3′-((Z)-1″-Allyloxyiminoethyl)thienylmethylidene))1,2-dihydro-9-hydroxy-10-methoxy-2,2,4-trimethyl-5H-chromeno[3,4-f]quinoline]
[1]
  Ki: 1 to 2 nM
